In ChEMBL document CHEMBL1201862, “PubChem BioAssay data set” (2004):
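Following 48 hours of exposure in 96-well plates, responses at five concentrations were used to interpolate endpoints linearly. GI50 is the concentration that inhibits growth by half.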 Active and inactive are the calls of the source. Cut-off read from the data, not from the text of the source: active = GI50 up to about 1.1 µM and inactive = higher. Peptide text beside a SMILES is read from it. * marks the point of attachment. Cbz = O=C(OCc1ccccc1)*

Experiments:
Assay in all cases: NCI anticancer screen, dose series, 48 h
MDA-MB-231 = test system: MDA-MB-231
OVCAR-5 = test system: OVCAR-5
SNB-75 = test system: SNB-75
DU-145 = test system: DU-145
MDA-N = test system: MDA-N
Hs-578T = test system: Hs-578T
SR = test system: SR
SK-MEL-5 = test system: SK-MEL-5
M14 = test system: M14
EKVX = test system: EKVX
SW-620 = test system: SW-620
SN12C = test system: SN12C
NCI-H23 = test system: NCI-H23
CCRF-CEM = test system: CCRF-CEM
SF-539 = test system: SF-539
UACC-62 = test system: UACC-62
MCF7 = test system: MCF7
A498 = test system: A498
UO-31 = test system: UO-31
MDA-MB-435 = test system: MDA-MB-435
SF-295 = test system: SF-295
HCT-116 = test system: HCT-116
K562 = test system: K562
NCI/ADR-RES = test system: NCI/ADR-RES
HCT-15 = test system: HCT-15
BT-549 = test system: BT-549
KM12 = test system: KM12
OVCAR-4 = test system: OVCAR-4
ACHN = test system: ACHN
RPMI-8226 = test system: RPMI-8226
SNB-19 = test system: SNB-19
PC-3 = test system: PC-3
HL-60 = test system: HL-60
RXF 393 = test system: RXF 393
786-0 = test system: 786-0
IGROV-1 = test system: IGROV-1
OVCAR-8 = test system: OVCAR-8
A549 = test system: A549
CAKI-1 = test system: CAKI-1
Malme-3M = test system: Malme-3M
MOLT-4 = test system: MOLT-4
T47D = test system: T47D
SK-MEL-28 = test system: SK-MEL-28
TK-10 = test system: TK-10
HT-29 = test system: HT-29
OVCAR-3 = test system: OVCAR-3
NCI-H226 = test system: NCI-H226
SF-268 = test system: SF-268
SK-MEL-2 = test system: SK-MEL-2
SK-OV-3 = test system: SK-OV-3
HOP-62 = test system: HOP-62
HCC 2998 = test system: HCC 2998
HOP-92 = test system: HOP-92
U-251 = test system: U-251
COLO 205 = test system: COLO 205
UACC-257 = test system: UACC-257
NCI-H522 = test system: NCI-H522
NCI-H460 = test system: NCI-H460
LOX IMVI = test system: LOX IMVI

COc1cc2cc(C(=O)N3CC(CCl)c4ccc([N+](C)(C)Cc5ccc([N+](=O)[O-])cc5)cc43)[nH]c2c(OC)c1OC (configuration not stated)
GI50 (MDA-MB-231): 7.55 µM (inactive)
GI50 (OVCAR-5): 3.87 µM (inactive)
GI50 (SNB-75): 3.3 µM (inactive)
GI50 (DU-145): 3.05 µM (inactive)
GI50 (MDA-N): 3.53 µM (inactive)
GI50 (Hs-578T): 9.62 µM (inactive)
GI50 (SR): 0.363 µM (active)
GI50 (SK-MEL-5): 1.71 µM (inactive)
GI50 (M14): 5.68 µM (inactive)
GI50 (EKVX): 5.69 µM (inactive)
GI50 (SW-620): 1.5 µM (inactive)
GI50 (SN12C): 4.55 µM (inactive)
GI50 (NCI-H23): 1.77 µM (inactive)
GI50 (CCRF-CEM): 2.01 µM (inactive)
GI50 (SF-539): 1.78 µM (inactive)
GI50 (UACC-62): 2.13 µM (inactive)
GI50 (MCF7): 2.14 µM (inactive)
GI50 (A498): 1.76 µM (inactive)
GI50 (UO-31): 2.1 µM (inactive)
GI50 (MDA-MB-435): 4.54 µM (inactive)
GI50 (SF-295): 2.58 µM (inactive)
GI50 (HCT-116): 1.83 µM (inactive)
GI50 (K562): 1.92 µM (inactive)
GI50 (NCI/ADR-RES): 1.71 µM (inactive)
GI50 (HCT-15): 3.2 µM
GI50 (BT-549): 5.74 µM (inactive)
GI50 (KM12): 2.77 µM (inactive)
GI50 (OVCAR-4): 3.09 µM (inactive)
GI50 (ACHN): 2.29 µM (inactive)
GI50 (RPMI-8226): 2.01 µM (inactive)
GI50 (SNB-19): 8.53 µM (inactive)
GI50 (PC-3): 2.09 µM (inactive)
GI50 (HL-60): 2.04 µM (inactive)
GI50 (RXF 393): 1.36 µM (inactive)
GI50 (786-0): 2.32 µM (inactive)
GI50 (IGROV-1): 1.97 µM (inactive)
GI50 (OVCAR-8): 1.75 µM (inactive)
GI50 (A549): 1.8 µM (inactive)
GI50 (CAKI-1): 2.05 µM (inactive)
GI50 (Malme-3M): 2.48 µM (inactive)
GI50 (MOLT-4): 2.1 µM (inactive)
GI50 (T47D): 3.48 µM (inactive)
GI50 (SK-MEL-28): 9.29 µM (inactive)
GI50 (TK-10): 1.86 µM (inactive)
GI50 (HT-29): 2.03 µM (inactive)
GI50 (OVCAR-3): 1.96 µM (inactive)
GI50 (NCI-H226): 2.82 µM (inactive)
GI50 (SF-268): 3.39 µM (inactive)
GI50 (SK-MEL-2): 2.05 µM (inactive)
GI50 (SK-OV-3): 2.28 µM (inactive)
GI50 (HOP-62): 4.92 µM (inactive)
GI50 (HCC 2998): 1.41 µM (inactive)
GI50 (HOP-92): 2.52 µM (inactive)
GI50 (U-251): 2.71 µM (inactive)
GI50 (COLO 205): 3.25 µM (inactive)
GI50 (UACC-257): 1.83 µM (inactive)
GI50 (NCI-H522): 0.552 µM (active)
GI50 (NCI-H460): 1.52 µM (inactive)

CCOC(=O)C(C)NC(=O)C(C)NC(=O)C(C)NC(=O)C(C)NC(=O)C(C)NC(=O)C(C)NC(=O)C(C)NC(=O)OCc1ccccc1 (configuration not stated) (Cbz-AAAAAAA-OEt; configuration not given here)
GI50 (MDA-MB-231): > 100 µM (inactive)
GI50 (LOX IMVI): > 100 µM (inactive)
GI50 (OVCAR-5): > 100 µM (inactive)
GI50 (SNB-75): > 100 µM (inactive)
GI50 (DU-145): > 100 µM (inactive)
GI50 (MDA-N): > 100 µM (inactive)
GI50 (Hs-578T): > 100 µM (inactive)
GI50 (SR): > 100 µM (inactive)
GI50 (SK-MEL-5): > 100 µM (inactive)
GI50 (M14): > 100 µM (inactive)
GI50 (EKVX): > 100 µM (inactive)
GI50 (SW-620): > 100 µM (inactive)
GI50 (SN12C): > 100 µM (inactive)
GI50 (NCI-H23): > 100 µM (inactive)
GI50 (SF-539): > 100 µM (inactive)
GI50 (UACC-62): > 100 µM (inactive)
GI50 (MCF7): > 100 µM (inactive)
GI50 (A498): 40.8 µM (inactive)
GI50 (UO-31): > 100 µM (inactive)
GI50 (MDA-MB-435): > 100 µM (inactive)
GI50 (SF-295): > 100 µM (inactive)
GI50 (HCT-116): > 100 µM (inactive)
GI50 (K562): > 100 µM (inactive)
GI50 (NCI/ADR-RES): > 100 µM (inactive)
GI50 (HCT-15): > 100 µM
GI50 (BT-549): > 100 µM (inactive)
GI50 (KM12): > 100 µM (inactive)
GI50 (OVCAR-4): > 100 µM (inactive)
GI50 (ACHN): > 100 µM (inactive)
GI50 (RPMI-8226): > 100 µM (inactive)
GI50 (SNB-19): > 100 µM (inactive)
GI50 (PC-3): > 100 µM (inactive)
GI50 (HL-60): > 100 µM (inactive)
GI50 (RXF 393): > 100 µM (inactive)
GI50 (786-0): > 100 µM (inactive)
GI50 (IGROV-1): > 100 µM (inactive)
GI50 (OVCAR-8): > 100 µM (inactive)
GI50 (A549): > 100 µM (inactive)
GI50 (CAKI-1): > 100 µM (inactive)
GI50 (Malme-3M): > 100 µM (inactive)
GI50 (MOLT-4): > 100 µM (inactive)
GI50 (T47D): > 100 µM (inactive)
GI50 (SK-MEL-28): > 100 µM (inactive)
GI50 (TK-10): > 100 µM (inactive)
GI50 (HT-29): > 100 µM (inactive)
GI50 (OVCAR-3): > 100 µM (inactive)
GI50 (NCI-H226): > 100 µM (inactive)
GI50 (SF-268): > 100 µM (inactive)
GI50 (SK-OV-3): > 100 µM (inactive)
GI50 (HOP-62): > 100 µM (inactive)
GI50 (HCC 2998): > 100 µM (inactive)
GI50 (HOP-92): > 100 µM (inactive)
GI50 (U-251): > 100 µM (inactive)
GI50 (COLO 205): > 100 µM (inactive)
GI50 (NCI-H522): > 100 µM (inactive)
GI50 (NCI-H460): > 100 µM (inactive)

CC1=NN(c2ccccc2)C(=O)/C1=C\c1c(C)[nH]n(-c2ccccc2)c1=O
GI50 (MDA-MB-231): > 100 µM (inactive)
GI50 (OVCAR-5): > 100 µM (inactive)
GI50 (SNB-75): > 100 µM (inactive)
GI50 (DU-145): > 100 µM (inactive)
GI50 (MDA-N): > 100 µM (inactive)
GI50 (Hs-578T): > 100 µM (inactive)
GI50 (SR): > 100 µM (inactive)
GI50 (SK-MEL-5): > 100 µM (inactive)
GI50 (M14): > 100 µM (inactive)
GI50 (EKVX): > 100 µM (inactive)
GI50 (SW-620): 92.7 µM (inactive)
GI50 (SN12C): > 100 µM (inactive)
GI50 (NCI-H23): > 100 µM (inactive)
GI50 (CCRF-CEM): 75.9 µM (inactive)
GI50 (SF-539): > 100 µM (inactive)
GI50 (UACC-62): > 100 µM (inactive)
GI50 (MCF7): > 100 µM (inactive)
GI50 (A498): > 100 µM (inactive)
GI50 (UO-31): > 100 µM (inactive)
GI50 (MDA-MB-435): > 100 µM (inactive)
GI50 (SF-295): > 100 µM (inactive)
GI50 (HCT-116): > 100 µM (inactive)
GI50 (K562): 38.8 µM (inactive)
GI50 (NCI/ADR-RES): > 100 µM (inactive)
GI50 (HCT-15): > 100 µM
GI50 (BT-549): > 100 µM (inactive)
GI50 (KM12): > 100 µM (inactive)
GI50 (OVCAR-4): > 100 µM (inactive)
GI50 (ACHN): > 100 µM (inactive)
GI50 (RPMI-8226): 28.4 µM (inactive)
GI50 (SNB-19): > 100 µM (inactive)
GI50 (PC-3): 77.4 µM (inactive)
GI50 (HL-60): > 100 µM (inactive)
GI50 (RXF 393): 35.1 µM (inactive)
GI50 (786-0): > 100 µM (inactive)
GI50 (IGROV-1): > 100 µM (inactive)
GI50 (OVCAR-8): > 100 µM (inactive)
GI50 (A549): > 100 µM (inactive)
GI50 (CAKI-1): > 100 µM (inactive)
GI50 (Malme-3M): 95.1 µM (inactive)
GI50 (MOLT-4): > 100 µM (inactive)
GI50 (T47D): 36.1 µM (inactive)
GI50 (SK-MEL-28): > 100 µM (inactive)
GI50 (TK-10): > 100 µM (inactive)
GI50 (HT-29): 81.1 µM (inactive)
GI50 (OVCAR-3): 54.5 µM (inactive)
GI50 (NCI-H226): > 100 µM (inactive)
GI50 (SF-268): > 100 µM (inactive)
GI50 (SK-MEL-2): > 100 µM (inactive)
GI50 (SK-OV-3): > 100 µM (inactive)
GI50 (HOP-62): > 100 µM (inactive)
GI50 (HCC 2998): > 100 µM (inactive)
GI50 (HOP-92): 27.1 µM (inactive)
GI50 (U-251): > 100 µM (inactive)
GI50 (COLO 205): > 100 µM (inactive)
GI50 (UACC-257): > 100 µM (inactive)
GI50 (NCI-H522): 53.7 µM (inactive)
GI50 (NCI-H460): > 100 µM (inactive)
